Among the data in US20040116336A1, “Peptide derivatives” (priority 2002, published 2004) are IC50 and EC50 values, retold here.

pEC50, pIC50: −log10 of the molar value. Non-standard residues stand in square brackets, D forms with d. Residues, ends and D or L forms follow the SMILES beside them. Phe(4-Cl) = N[C@@H](Cc1ccc(Cl)cc1)C(=O)O; Cha = N[C@@H](CC1CCCCC1)C(=O)O

For assay [1], the target named is T1, APJ (Homo sapiens, UniProt P35414).
T1 construct: expressed in transfected cells; host or cells: CHO (CHO-A10; clone 6 for the cAMP assay)
T1 sequence (P35414 1-380): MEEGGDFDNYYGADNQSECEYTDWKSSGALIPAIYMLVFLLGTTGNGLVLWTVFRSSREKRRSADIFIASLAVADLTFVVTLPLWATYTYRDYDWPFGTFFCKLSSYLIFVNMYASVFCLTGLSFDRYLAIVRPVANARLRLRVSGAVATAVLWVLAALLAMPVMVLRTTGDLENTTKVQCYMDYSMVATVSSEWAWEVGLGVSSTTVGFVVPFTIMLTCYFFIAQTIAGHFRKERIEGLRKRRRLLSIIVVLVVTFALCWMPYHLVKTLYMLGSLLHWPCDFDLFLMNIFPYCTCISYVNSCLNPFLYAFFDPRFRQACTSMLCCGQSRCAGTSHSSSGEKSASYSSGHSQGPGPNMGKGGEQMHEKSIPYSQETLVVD
Put plainly: Receptor binding assay-1 (125I-labeled compound in Reference Example 1, CHO-A10 membrane fraction). The settings on record: 125I-labeled compound in Reference Example 1 at 100 pM. How it is done:
This product was mixed with an equal volume of an assay buffer (50 mM Tris-HCl/pH 7.5, 5 mM EDTA, 0.5 mM PMSF, 20 μg/ml leupeptin, 0.1 μg/ml pepstatin A, 4 μg/ml E-64 (Peptide Research Laboratory, Co.), 0.1% bovine serum albumin) and stored at −30° C. before use.
CHO-A10 cells were cultured, recovered with PBS containing 5 mM EDTA from a culture vessel, and suspended in the above-mentioned assay buffer not containing bovine serum albumin. The cells were homogenized 3 times at 12,000 rpm for 15 seconds by a Polytron homogenizer (manufactured by Kinematica Inc.) and then centrifuged (1000×g, 4° C., 10 minutes), and the supernatant was recovered. The precipitates were subjected again to the same procedure as above, and the respective supernatants were combined and centrifuged at 100,000×g, 4° C. for 1 hour, to recover precipitates (membrane fraction). The membrane fraction was suspended again in a small amount of the buffer, homogenized with a Teflon homogenizer and stored at −80° C. before use.
Binding assay was carried out under the following conditions. […] Measurement of non-specific binding was carried out using a well containing 1 μM unlabeled compound in place of the test sample. After the incubation was finished, a cell harvester (Packard) adapted to 96 wells and a filter unit (GF/C, Packard) were used for separation thereby capturing the membrane fraction on the filter. After the filter was sufficiently dried, Microcinti 0 (Packard) was added thereto, and using Top Count (Packard), the amount of the labeled material captured together with the membrane fraction on the filter was measured.

Assay [2] has as its target T1, APJ. Put plainly: Inhibitory activity on forskolin-stimulated cAMP production in CHO-A10 clone 6 cells. In kind it is cell-based. The settings on record: read-out: EC50. In general terms: Changes in cAMP serve as a functional read-out for many G protein-coupled receptors.
Assay [3] deals with T1, APJ. Put plainly: Receptor binding assay-2 (compound in Reference Example 2 used). The settings on record: compound in Reference Example 2 used as ligand; read-out: IC50.

In general, pIC50 refers to the IC50 on a negative log10 scale, so that one unit is a factor of ten. For orientation: pEC50 means the EC50 on a negative log10 scale, so that one unit is a factor of ten. Turning to `CSCC[C@H](NC(=O)[C@@H]1CCCN1C(=O)CNC(=O)[C@H](CCCCN)NC(=O)[C@H](Cc1c[nH]cn1)NC(=O)[C@H](CO)NC(=O)[C@H](CC(C)C)NC(=O)[C@H](CCCNC(=N)N)NC(=O)[C@@H]1CCCN1C(=O)[C@H](CCCNC(=N)N)NC(=O)[C@H](CCCCN)NC(=O)[C@H](CCCNC(=N)N)NC(=O)[C@@H](N)CCCNC(=N)N)C(=O)N1CCC[C@H]1C(=O)N[C@@H](Cc1ccccc1)C(=O)O` [Compound in Ex. 23], the pIC50 on APJ [1] (room temperature […]) was 8.04; at APJ [3], 10.05. Also, at APJ [2], the pEC50 was 9.51.

For `CSCC[C@H](NC(=O)[C@@H]1CCCN1C(=O)CNC(=O)[C@H](CCCCN)NC(=O)[C@H](Cc1c[nH]cn1)NC(=O)[C@H](CO)NC(=O)[C@H](CC(C)C)NC(=O)[C@H](CCCNC(=N)N)NC(=O)[C@@H]1CCCN1C(=O)[C@@H](N)CCCNC(=N)N)C(=O)N1CCC[C@H]1C(=O)N[C@@H](Cc1ccc(Cl)cc1)C(=O)O` [Compound in Ex. 8], the pIC50 at APJ [1] (room temperature 1.5 hours) is 7.89; on APJ [3], 10.41. Also, the pEC50 at APJ [2] is 9.47.

Take `CCCC[C@H](NC(=O)[C@@H]1CCCN1C(=O)CNC(=O)[C@H](CCCCN)NC(=O)[C@H](Cc1c[nH]cn1)NC(=O)[C@H](CO)NC(=O)[C@H](CC(C)C)NC(=O)[C@H](CCCNC(=N)N)NC(=O)[C@@H]1CCCN1C(=O)[C@H](CCCNC(=N)N)NC(=O)[C@H](CCC(N)=O)NC(=O)[C@H](CCCNC(=N)N)NC(=O)[C@@H](N)CCCNC(=N)N)C(=O)N1CCC[C@H]1C(=O)N[C@@H](Cc1ccc(O)cc1)C(=O)O` [Compound in Ex. 14]: the results for the pIC50 on APJ [1] (room temperature […]) and at APJ [3] were 8.57 and 10.57, respectively. In addition, the pEC50 on APJ [2] is 9.55.

`CC(C)C[C@H](NC(=O)[C@H](CCCNC(=N)N)NC(=O)[C@@H]1CCCN1C(=O)[C@H](CCCNC(=N)N)NC(=O)[C@H](CCC(N)=O)NC(=O)[C@H](CCCNC(=N)N)NC(=O)[C@@H](N)CCCNC(=N)N)C(=O)N[C@@H](CO)C(=O)N[C@@H](Cc1c[nH]cn1)C(=O)N[C@@H](CCCCN)C(=O)NCC(=O)N1CCC[C@H]1C(=O)N[C@@H](CC1CCCCC1)C(=O)N1CCC[C@H]1C(=O)N[C@@H](Cc1ccc(Cl)cc1)C(=O)O` [Compound in Ex. 2]: the pIC50 on APJ [1] (room temperature […]) was 9.33; at APJ [3], 9.48. Also, the pEC50 at APJ [2] was 9.28.

Turning to `CSCC[C@H](NC(=O)[C@@H]1CCCN1C(=O)CNC(=O)[C@H](CCCCN)NC(=O)[C@H](Cc1c[nH]cn1)NC(=O)[C@H](CO)NC(=O)[C@H](CC(C)C)NC(=O)[C@H](CCCNC(=N)N)NC(=O)[C@@H]1CCCN1C(=O)[C@H](CCCNC(=N)N)NC(=O)[C@H](C)NC(=O)[C@H](CCCNC(=N)N)NC(=O)[C@@H](N)CCCNC(=N)N)C(=O)N1CCC[C@H]1C(=O)N[C@@H](Cc1ccccc1)C(=O)O` [Compound in Ex. 25], the results for the pIC50 on APJ [1] (room temperature […]) and at APJ [3] were 7.47 and 10.17, respectively. The pEC50 on APJ [2] is 9.60.

As for `CSCC[C@H](NC(=O)[C@@H]1CCCN1C(=O)CNC(=O)[C@H](CCCCN)NC(=O)[C@H](Cc1c[nH]cn1)NC(=O)[C@H](CO)NC(=O)[C@H](CC(C)C)NC(=O)[C@H](CCCNC(=N)N)NC(=O)[C@@H]1CCCN1C(=O)[C@H](CCCNC(=N)N)NC(=O)[C@H](CCCCNC(=O)[C@H](CCCNC(=N)N)NC(=O)[C@@H](N)CCCNC(=N)N)NC(=O)[C@H](CCCNC(=N)N)NC(=O)[C@@H](N)CCCNC(=N)N)C(=O)N1CCC[C@H]1C(=O)N[C@@H](Cc1ccccc1)C(=O)O` [Compound in Ex. 21], the pIC50 at APJ [1] (room temperature […]) was 8.54; on APJ [3], 9.08. For the same compound, at APJ [2], the pEC50 is 9.24.

Regarding `CC(C)C[C@H](NC(=O)[C@H](CCCNC(=N)N)NC(=O)[C@@H]1CCCN1C(=O)[C@@H](N)CCCNC(=N)N)C(=O)N[C@@H](Cc1ccccc1)C(=O)N[C@@H](C)C(=O)N[C@@H](CCCNC(=N)N)C(=O)NCC(=O)N1CCC[C@H]1C(=O)N[C@@H](CC1CCCCC1)C(=O)N1CCC[C@H]1C(=O)N[C@@H](Cc1ccc(Cl)cc1)C(=O)O` [Compound in Ex. 12] (H-RPRLFARGP[Cha]P[Phe(4-Cl)]-OH), the figures for the pIC50 at APJ [1] (room temperature […]) and on APJ [3] were 8.64 and 9.42, respectively. Further, the pEC50 on APJ [2] was 8.92.

For `CC(C)C[C@H](NC(=O)[C@H](CCCNC(=N)N)NC(=O)[C@@H]1CCCN1C(=O)[C@@H](N)CCCNC(=N)N)C(=O)N[C@@H](CO)C(=O)N[C@@H](Cc1c[nH]cn1)C(=O)N[C@@H](CCCCN)C(=O)NCC(=O)N1CCC[C@H]1C(=O)N[C@@H](CC1CCCCC1)C(=O)N1CCC[C@H]1C(=O)N[C@@H](Cc1ccc(Cl)cc1)C(=O)O` [Compound in Ex. 7], the results for the pIC50 on APJ [1] (room temperature […]) and at APJ [3] were 8.85 and 9.92, respectively. For the same compound, the pEC50 at APJ [2] is 9.39.

For `CSCC[C@H](NC(=O)[C@@H]1CCCN1C(=O)CNC(=O)[C@H](CCCNC(=N)N)NC(=O)[C@H](C)NC(=O)[C@H](CO)NC(=O)[C@H](CC(C)C)NC(=O)[C@H](CCCNC(=N)N)NC(=O)[C@@H]1CCCN1C(=O)[C@H](CCCNC(=N)N)NC(=O)[C@H](CCC(N)=O)NC(=O)[C@H](CCCNC(=N)N)NC(=O)[C@@H](N)CCCNC(=N)N)C(=O)O` [Compound in Ex. 18], the pIC50 at APJ [1] (room temperature […]) is 8.60; on APJ [3] it was 10.64. In addition, the pEC50 at APJ [2] was 9.74.

Regarding `CC(C)C[C@H](NC(=O)[C@H](CCCNC(=N)N)NC(=O)[C@@H]1CCCN1C(=O)[C@@H](N)CCCNC(=N)N)C(=O)N[C@@H](CO)C(=O)N[C@@H](C)C(=O)N[C@@H](CCCNC(=N)N)C(=O)NCC(=O)N1CCC[C@H]1C(=O)N[C@@H](CC1CCCCC1)C(=O)N[C@@H](Cc1ccc(Cl)cc1)C(=O)O` [Compound in Ex. 4] (H-RPRLSARGP[Cha][Phe(4-Cl)]-OH; N-terminus and C-terminus assumed), the pIC50 on APJ [1] (room temperature […]) is 9.00; on APJ [3] it was 10.00. In addition, the pEC50 on APJ [2] was 9.19.

Regarding `CC(C)C[C@H](NC(=O)[C@H](CCCNC(=N)N)NC(=O)[C@@H]1CCCN1C(=O)[C@@H](N)CCCNC(=N)N)C(=O)N[C@@H](CO)C(=O)N[C@@H](C)C(=O)N[C@@H](CCCNC(=N)N)C(=O)NCC(=O)N1CCC[C@H]1C(=O)N[C@@H](CC1CCCCC1)C(=O)N1CCC[C@H]1C(=O)N[C@@H](Cc1ccccc1)C(=O)O` [Compound in Ex. 11] (H-RPRLSARGP[Cha]PF-OH; N-terminus and C-terminus assumed), the pIC50 was 8.66 at APJ [1] (room temperature […]) and 10.08 on APJ [3]. The pEC50 on APJ [2] was 9.23.
